Article PMC10470053, “Diverse p120RasGAP interactions with doubly phosphorylated partners EphB4, p190RhoGAP, and Dok1” (The Journal of Biological Chemistry, 2023)
Values joined by “and” are separate entries in the source; they are usually repeats but may differ in a detail not shown here. Identical values can stand only once. Square brackets hold non-standard residues; d marks the D form. Peptide text beside a SMILES is read from it. pY = N[C@@H](Cc1ccc(OP(=O)(O)O)cc1)C(=O)O

Legend:
[1] = biological target: T1, RasGAP^232(mut) (R398E/K400E, C-SH2 mutant) (Homo sapiens, UniProt P20936, C236S/C261S/C372S/C402S/K400E/R398E); experiment: Isothermal titration calorimetry, C-SH2 mutant RasGAP^232(mut); assay type: binding
T1 construct: (residues 174–444, termed RasGAP^232); hexahistidine (TEV-cleavable) (N, cleaved yes); made in house; host or cells: E. coli Rosetta (DE3)
T1 sequence (P20936 174-444 C236S/C261S/C372S/R398E/K400E/C402S): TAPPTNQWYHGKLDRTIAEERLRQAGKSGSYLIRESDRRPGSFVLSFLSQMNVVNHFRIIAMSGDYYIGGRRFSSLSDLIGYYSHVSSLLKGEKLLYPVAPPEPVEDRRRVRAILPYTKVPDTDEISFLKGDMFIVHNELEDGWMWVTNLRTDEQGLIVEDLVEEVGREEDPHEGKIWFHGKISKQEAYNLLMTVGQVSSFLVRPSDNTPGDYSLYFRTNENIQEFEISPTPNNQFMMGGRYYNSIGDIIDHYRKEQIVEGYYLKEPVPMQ
Experimental: One possibility for the difference in binding affinity of EphB4 compared to the other dually phosphorylated peptides is that only a single SH2 domain engages EphB4 at any time. This is supported by the observation that the Kd of binding, 2 μM, is similar to other reported individual SH2 phosphotyrosine interactions (for examples see ([60])) and the evidence of only one inflection point in the doubly phosphorylated EphB4–binding isotherm (Figs. 2B and S3). To assess this hypothesis, we generated two RasGAP^232 mutants that disrupt the phosphotyrosine-binding sites of either the N- or C-SH2 domains and conducted further ITC experiments. […] For the ‘FLVR-unique” C-terminal SH2, we introduced a double mutation R398E/K400E, to abrogate phosphotyrosine binding guided by our previous work ([52]), termed RasGAP^232(mut) (Fig. 2D). We additionally generated a double mutant of both SH2 domains, RasGAP^2(mut)32(mut), and purified each of these proteins (Fig. S2, B–D). […] We then assessed phosphopeptide binding of the single mutant SH2 domains. […] This is similar to the Kd of 2 ± 0.7 μM observed for titration of this peptide into WT RasGAP^232.
To attempt to parse the specificity of RasGAP for the more N- or C-terminal EphB juxtamembrane phosphotyrosines pY590 and pY596, we assessed the affinity of RasGAP^232(mut) for shorter synthesized EphB4 peptides corresponding to either of the two phosphotyrosines (Fig. 1C). […] Alternatively, the C-terminal SH2 may contribute to a second weaker interaction in a tandem interaction. […] This low-affinity interaction represents a primarily single N-SH2-dominant interaction.
Purified RasGAP^232 protein and solubilized peptides were dialyzed overnight against buffer containing 20 mM Tris pH 8, 250 mM NaCl in Slide-A-Lyzer 3 ml 10 kDa molecular weight cut off cassettes (Spectra-Por) and Micro Float-A-Lyzer 0.1 to 0.2 ml, 0.1 to […] molecular weight cut off devices (Spectra-Por), respectively. Protein and peptide concentrations were determined by A280 measured on a Nanodrop Lite (Thermo Fisher Scientific) instrument using extinction coefficients of 45,840 M^−1 cm^−1 for RasGAP^232 (and mutants), 917 M^−1 cm^−1 for the doubly phosphorylated EphB4 peptide, and 458.5 M^−1 cm^−1 for the singly phosphorylated EphB4 peptides as determined by ([74]). Dok1 peptide concentration was confirmed using Amino Acid Analysis performed at UC Davis Molecular Structure Facility. Samples were centrifuged for 10 min at 4 °C and degassed for 7 min using a Degassing Station (TA Instruments). ITC experiments were performed on a Nano ITC (TA Instruments) by loading protein into the 190 μl sample cell and titrating 20 times with 2.5 μl peptide in the titration syringe. Concentrations for sample cell and syringe for each trial are included in Table S1. The data were analyzed in NanoAnalyze software (TA Instrument) using blank (constant) and independent models (https://www.tainstruments.com/itcrun-dscrun-nanoanalyze-software/).

[2] = biological target: T2, RasGAP^232(mut) (RasGAP^232 with R398E/K400E in the C-SH2 domain) (human, UniProt P20936 174-444, R398E | K400E | C236 | C261 | C372 | C402); experiment: ITC; protein in the 190 ul sample cell, titrated 20 times with 2.5 ul peptide from the syringe; 20 mM Tris pH 8, 250 mM NaCl; Nano ITC (TA Instruments); independent binding model; settings: both partners purified
T2 construct: p120RasGAP (RASA1), human, UniProt P20936, residues 174-444, mutant of RasGAP^232 in the C-SH2 domain; also called C-SH2 mutant; source: E. coli Rosetta (DE3), purified (same protocol as the WT: Ni-NTA, TEV cleavage, anion exchange, SEC)
T2 sequence (looked up): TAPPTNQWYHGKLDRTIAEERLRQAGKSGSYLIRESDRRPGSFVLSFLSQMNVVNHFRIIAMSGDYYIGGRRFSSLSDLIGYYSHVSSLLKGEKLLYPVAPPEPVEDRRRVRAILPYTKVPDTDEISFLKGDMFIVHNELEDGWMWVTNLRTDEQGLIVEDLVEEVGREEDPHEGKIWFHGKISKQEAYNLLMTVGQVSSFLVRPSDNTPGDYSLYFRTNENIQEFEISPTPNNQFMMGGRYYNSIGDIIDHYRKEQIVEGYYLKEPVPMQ

[3] = biological target: T3, RasGAP^232(mut) (RasGAP^232 with R398E/K400E in the C-SH2 domain) (human, UniProt P20936 174-444, C236S | C261S | C372S | C402S | R398E | K400E); experiment: ITC; RasGAP^232 protein (WT or mutant) in the 190 µl sample cell, peptide in the syringe, 20 injections of 2.5 µl; 20 mM Tris pH 8, 250 mM NaCl; Nano ITC (TA Instruments); blank (constant) and independent models; values of single trials, averages and stdev; settings: both partners purified
T3 construct: p120RasGAP, human, UniProt P20936, residues 174-444; Made by site-directed mutagenesis of RasGAP^232, which holds the four cysteine to serine mutations; also called C-SH2 mutant; source: E. coli Rosetta (DE3), purified (same protocol as the WT counterpart); not shown: His6, N-terminal, cleaved
T3 sequence (looked up): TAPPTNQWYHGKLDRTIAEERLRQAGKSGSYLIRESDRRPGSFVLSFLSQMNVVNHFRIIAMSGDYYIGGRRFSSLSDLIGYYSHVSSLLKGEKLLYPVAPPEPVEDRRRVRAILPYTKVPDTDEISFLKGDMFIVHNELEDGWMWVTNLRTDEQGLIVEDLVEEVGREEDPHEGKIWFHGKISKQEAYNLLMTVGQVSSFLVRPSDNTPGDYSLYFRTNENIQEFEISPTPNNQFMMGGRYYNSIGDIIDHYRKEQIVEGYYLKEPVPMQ

[4] = biological target: T4, RasGAP^232 (p120RasGAP N-SH2, SH3 and C-SH2 domains, residues 174-444) (human, UniProt P20936 174-444, C236 | C261 | C372 | C402); experiment: ITC; protein in the 190 ul sample cell, titrated 20 times with 2.5 ul peptide from the syringe; 20 mM Tris pH 8, 250 mM NaCl; Nano ITC (TA Instruments); independent binding model; settings: both partners purified
T4 construct: p120RasGAP (RASA1), human, UniProt P20936, residues 174-444 (N-SH2, SH3, C-SH2), with four cysteine to serine mutations; also called WT RasGAP^232; apo RasGAP^232; source: E. coli Rosetta (DE3), purified (Ni-NTA, TEV cleavage, anion exchange, SEC)
T4 sequence (looked up): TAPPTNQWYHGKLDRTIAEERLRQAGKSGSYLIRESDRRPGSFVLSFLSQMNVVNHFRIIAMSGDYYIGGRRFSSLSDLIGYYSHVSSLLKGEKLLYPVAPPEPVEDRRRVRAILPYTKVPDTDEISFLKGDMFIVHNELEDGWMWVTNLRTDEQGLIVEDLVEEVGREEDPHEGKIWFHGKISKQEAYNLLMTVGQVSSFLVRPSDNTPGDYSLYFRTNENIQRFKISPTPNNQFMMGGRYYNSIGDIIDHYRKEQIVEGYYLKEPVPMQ

[5] = ITC, average of trials (Table S1)

## CC(=O)N[C@@H](CC(=O)O)C(=O)N1CCC[C@H]1C(=O)N[C@@H](Cc1ccccc1)C(=O)N[C@H](C(=O)N[C@@H](Cc1ccc(OP(=O)(O)O)cc1)C(=O)N[C@@H](CCC(=O)O)C(=O)N[C@@H](CC(=O)O)C(=O)N1CCC[C@H]1C(=O)N[C@@H](CC(N)=O)C(=O)N[C@@H](CCC(=O)O)C(N)=O)[C@@H](C)O [pY596 EphB4] (Ac-DPFT[pY]EDPNE-NH2)
[1]; ITC Kd, singly versus doubly phosphorylated EphB4 peptide
  weaker binding than the doubly phosphorylated EphB4 peptide: about 10 fold
[1]; ITC stoichiometry, mean ± SD of trials
  n: 0.6 ± 0.2
[1]; [5]
  -T∆S: -1.2 kcal/mol
  Ka: 0.05 µM⁻¹
  ∆G: -6.38 kcal/mol
[1]; ITC, mean ± SD of trials
  ΔH: -5.26 kcal/mol and -5.26 ± 0.96 kcal/mol
  ΔS: 15 J/mol∗K and 15 ± 13 J/mol∗K
[1]; trial 2, ITC
  -T∆S: -1.58 kcal/mol
  ∆G: -6.36 kcal/mol
  ∆H: -4.8 kcal/mol
  ∆S: 22.0 J/mol*K
[1]; trial 3, ITC
  -T∆S: -0.048 kcal/mol
  Ka: 0.05 µM⁻¹
  ∆G: -6.48 kcal/mol
  ∆H: -6.43 kcal/mol
  ∆S: 0.8 J/mol*K

B1: singly phosphorylated EphB4 peptide pY596 (peptide)
peptide: Ac-DPFT[pY]EDPNE-NH2
SMILES: CC(=O)N[C@@H](CC(=O)O)C(=O)N1CCC[C@H]1C(=O)N[C@@H](Cc1ccccc1)C(=O)N[C@H](C(=O)N[C@@H](Cc1ccc(OP(=O)(O)O)cc1)C(=O)N[C@@H](CCC(=O)O)C(=O)N[C@@H](CC(=O)O)C(=O)N1CCC[C@H]1C(=O)N[C@@H](CC(N)=O)C(=O)N[C@@H](CCC(=O)O)C(N)=O)[C@@H](C)O
notes: EphB4 juxtamembrane region, UniProt P54760; also called pY596 EphB4; source: synthetic peptide, bought: GenScript
[2]
  Kd: 21 ± 3 µM
  dH: -5.26 ± 0.956 kcal/mol
  stoichiometry N: 0.6 ± 0.2

B2: singly phosphorylated EphB4 peptide pY590 (peptide)
peptide: Ac-GTKV[pY]IDPFT-NH2
SMILES: CC[C@H](C)[C@H](NC(=O)[C@H](Cc1ccc(OP(=O)(O)O)cc1)NC(=O)[C@@H](NC(=O)[C@H](CCCCN)NC(=O)[C@@H](NC(=O)CNC(C)=O)[C@@H](C)O)C(C)C)C(=O)N[C@@H](CC(=O)O)C(=O)N1CCC[C@H]1C(=O)N[C@@H](Cc1ccccc1)C(=O)N[C@H](C(N)=O)[C@@H](C)O
notes: EphB4, UniProt P54760, residues 586-595; also called pY590 EphB4; source: synthetic peptide, bought: GenScript
[3]
  Kd: 24.2 µM and 14.6 µM and 9.7 µM
  stoichiometry N: 0.7 and 0.8

B3: singly phosphorylated EphB4 peptide pY590 (residues 586-595) (peptide)
peptide: Ac-GTKV[pY]IDPFT-NH2
SMILES: CC[C@H](C)[C@H](NC(=O)[C@H](Cc1ccc(OP(=O)(O)O)cc1)NC(=O)[C@@H](NC(=O)[C@H](CCCCN)NC(=O)[C@@H](NC(=O)CNC(C)=O)[C@@H](C)O)C(C)C)C(=O)N[C@@H](CC(=O)O)C(=O)N1CCC[C@H]1C(=O)N[C@@H](Cc1ccccc1)C(=O)N[C@H](C(N)=O)[C@@H](C)O
notes: EphB4 juxtamembrane region, UniProt P54760, residues 586-595; also called pY590 EphB4; source: synthetic peptide, bought: GenScript
[2]
  Kd: 16 ± 7 µM
  dH: -3.7 kcal/mol
  stoichiometry N: 0.8 ± 0.1

B4: doubly phosphorylated Dok1 peptide (residues 291-322, pY296 and pY315) (peptide)
peptide: Ac-SPPAL[pY]AEPLDSLRIAPCPSQDSL[pY]SDPLDST-NH2
SMILES: CC[C@H](C)[C@H](NC(=O)[C@H](CCCNC(=N)N)NC(=O)[C@H](CC(C)C)NC(=O)[C@H](CO)NC(=O)[C@H](CC(=O)O)NC(=O)[C@H](CC(C)C)NC(=O)[C@@H]1CCCN1C(=O)[C@H](CCC(=O)O)NC(=O)[C@H](C)NC(=O)[C@H](Cc1ccc(OP(=O)(O)O)cc1)NC(=O)[C@H](CC(C)C)NC(=O)[C@H](C)NC(=O)[C@@H]1CCCN1C(=O)[C@@H]1CCCN1C(=O)[C@H](CO)NC(C)=O)C(=O)N[C@@H](C)C(=O)N1CCC[C@H]1C(=O)N[C@@H](CS)C(=O)N1CCC[C@H]1C(=O)N[C@@H](CO)C(=O)N[C@@H](CCC(N)=O)C(=O)N[C@@H](CC(=O)O)C(=O)N[C@@H](CO)C(=O)N[C@@H](CC(C)C)C(=O)N[C@@H](Cc1ccc(OP(=O)(O)O)cc1)C(=O)N[C@@H](CO)C(=O)N[C@@H](CC(=O)O)C(=O)N1CCC[C@H]1C(=O)N[C@@H](CC(C)C)C(=O)N[C@@H](CC(=O)O)C(=O)N[C@@H](CO)C(=O)N[C@H](C(N)=O)[C@@H](C)O
notes: Dok1, UniProt Q99704, residues 291-322; also called pYpY Dok1; source: synthetic peptide, bought: GenScript
[4]
  Kd: 0.03 ± 0.02 µM
  dH: -18.6 ± 0.717 kcal/mol
  stoichiometry N: 0.8 ± 0.1

B5: singly phosphorylated EphB4 peptide pY596 (peptide)
peptide: Ac-DPFT[pY]EDPNE-NH2
SMILES: CC(=O)N[C@@H](CC(=O)O)C(=O)N1CCC[C@H]1C(=O)N[C@@H](Cc1ccccc1)C(=O)N[C@H](C(=O)N[C@@H](Cc1ccc(OP(=O)(O)O)cc1)C(=O)N[C@@H](CCC(=O)O)C(=O)N[C@@H](CC(=O)O)C(=O)N1CCC[C@H]1C(=O)N[C@@H](CC(N)=O)C(=O)N[C@@H](CCC(=O)O)C(N)=O)[C@@H](C)O
notes: EphB4, UniProt P54760; also called pY596 EphB4; source: synthetic peptide, bought: GenScript
[3]
  Ka: 40000 M⁻¹ and 50000 M⁻¹
  Kd: 24 µM and 22 µM and 18 µM
  stoichiometry N: 0.7 and 0.8 and 0.4
